According to the supplement of paper PMC8967900:

Assays:
Assay in all cases: selective drug sensitivity score (sDSS, relative to normal bone marrow) (sDSS (score)); higher = more potent and effective on the cell line relative to normal bone marrow cells
Conditions in all cases: 72 h
380 = system: 380
ALL-SIL = system: ALL-SIL
COG-LL-317 = system: COG-LL-317
COG-LL-319h = system: COG-LL-319h
COG-LL-394h = system: COG-LL-394h
COG-LL-402h = system: COG-LL-402h
HPB-ALL = system: HPB-ALL
JURKAT = system: JURKAT
KASUMI-10 = system: KASUMI-10
KASUMI-9 = system: KASUMI-9
MHH-CALL-3 = system: MHH-CALL-3
MOLT-4 = system: MOLT-4
NALM-16 = system: NALM-16
NALM-6 = system: NALM-6
PEER = system: PEER
PF-382 = system: PF-382
RCH-ACV = system: RCH-ACV
REH = system: REH
SEM cells = system: SEM cells
TANOUE = system: TANOUE
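Further: ALL cell lines in 384-well plates, five doses spanning 10,000-fold, each plate scaled between vehicle and 100 µmol/L benzalkonium chloride controls, sDSS an adapted area-under-curve metric.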

Row | Structure (SMILES) | selective drug sensitivity score 380 | selective drug sensitivity score (ALL-SIL) | selective drug sensitivity score (COG-LL-317) | selective drug sensitivity score (COG-LL-319h) | selective drug sensitivity score (COG-LL-394h) | selective drug sensitivity score (COG-LL-402h) | selective drug sensitivity score (HPB-ALL) | selective drug sensitivity score (JURKAT) | selective drug sensitivity score (KASUMI-10) | selective drug sensitivity score (KASUMI-9) | selective drug sensitivity score (MHH-CALL-3) | selective drug sensitivity score (MOLT-4) | selective drug sensitivity score (NALM-16) | selective drug sensitivity score (NALM-6) | selective drug sensitivity score (PEER) | selective drug sensitivity score (PF-382) | selective drug sensitivity score (RCH-ACV) | selective drug sensitivity score (REH) | selective drug sensitivity score (SEM cells) | selective drug sensitivity score (TANOUE)
1 | Cn1cc(-c2ccc(F)c(C(F)(F)F)c2)nc1C1CCN(c2ncnc3[nH]ncc23)CC1 (top concentration 10000 nM) | 12.3 | 0.06 | 1.76 | 3.76 | -0.14 | -0.14 | -0.14 | -0.14 | -0.14 | 0.66 | 5.16 | 0.36 | -0.14 | -0.14 | 1.66 | -0.14 | 8.26 | -0.14 | -0.14 | 0.96
2 | CC(=O)c1cc2c(o1)C(=O)c1ccccc1C2=O [Napabucasin] (top concentration 20000 nM) | -2.08 | 2.22 | -0.18 | -0.18 | -9.68 | -3.48 | -0.98 | 0.52 | 0.92 | -1.28 | -3.28 | -1.28 | -11.8 | -1.48 | 0.62 | -0.28 | -1.38 | -1.58 | 0.52 | -4.88
3 | CC(C)[C@H](C(=O)Nc1ccc(C(=O)NO)cc1)c1ccccc1 [AR-42] (top concentration 10000 nM) | 10.1 | 10.2 | 6.48 | 10.8 | 2.08 | 10.8 | 9.78 | 5.28 | 6.88 | 8.08 | 14.3 | 7.08 | 1.68 | 4.48 | 9.18 | 5.78 | 13.9 | 5.38 | 9.08 | -4.22
4 | COc1ccc(COc2cc3oc(=O)c4cc(C(C)O)ccc4c3cc2OC)cc1 (stereo not given) [Palomid-529] (top concentration 10000 nM) | 5.86 | -0.24 | 0.06 | 17.2 | -0.24 | 0.26 | 0.76 | 5.16 | -0.24 | 0.66 | -0.24 | 2.26 | -0.24 | -0.24 | 4.16 | 1.06 | -0.14 | 6.66 | 1.76 | 0.36
5 | CCn1c(-c2nonc2N)nc2c(C#CC(C)(C)O)ncc(OC[C@H]3CCCNC3)c21 (top concentration 10000 nM) | 8.58 | 6.68 | 14.8 | 7.38 | 2.18 | 8.28 | 3.98 | 7.48 | 0.88 | 0.98 | 3.38 | 8.68 | 2.68 | 8.78 | 1.68 | 4.48 | 17.1 | 12.9 | 5.28 | -1.12
6 | O=C(O)c1ccc2c(c1)nc(Nc1cccc(Cl)c1)c1ccncc12 [Silmitasertib] (top concentration 10000 nM) | 7.7 | 6.2 | 4 | 15.8 | 2.3 | 0.2 | 1.9 | 3.2 | 3.8 | 3.3 | -1.4 | 0.6 | -1.4 | 4 | 3.6 | 2 | 0.8 | 4.8 | 1.4 | -0.3
7 | Nc1ccn([C@@H]2O[C@H](CO)[C@@H](O)C2(F)F)c(=O)n1 [Gemcitabine] (top concentration 1000 nM) | 23.5 | 12.1 | 20.4 | 20.5 | -8.04 | 18.6 | 0.96 | 9.16 | 16.8 | 16.3 | 13.4 | 10.4 | 8.06 | 14.5 | 5.06 | 13.5 | 18.5 | 13 | 24.9 | -7.34
8 | CN(c1ncccc1CNc1nc(Nc2ccc3c(c2)CC(=O)N3)ncc1C(F)(F)F)S(C)(=O)=O (top concentration 10000 nM) | 4.02 | 4.92 | -1.28 | 4.52 | -0.08 | 2.42 | -1.18 | 1.52 | 6.62 | 0.12 | 4.82 | 1.02 | 0.42 | 5.22 | 7.22 | -0.78 | 3.62 | 5.12 | 7.22 | -3.98
9 | O=C(Nc1c[nH]nc1-c1nc2ccc(CN3CCOCC3)cc2[nH]1)NC1CC1 [AT9283] (top concentration 1000 nM) | 11.3 | 15.6 | 14.2 | 11.3 | 1.02 | 7.72 | -1.48 | -1.38 | 8.42 | 10.7 | 10.4 | 3.72 | -0.68 | 6.82 | 15.9 | 7.72 | 6.02 | 11.6 | 14.7 | -4.38
